Source: patent US10258639B2, “Methods for treating insulin resistance and for sensitizing patients to GLP1 agonist therapy” (Research Development Foundation, priority 2014, dated 2019)

Tested on: INS1 cells
Assay: RNAseq of INS1 cells grown in chronic high glucose compared to controls and stimulated with FSK (Table 2)
Format: cell-based, rat
Conditions: Low glucose
Description: INS-1 insulinoma cells were cultured in RPMI (corning cellgro) containing 10% fetal bovine serum (Gemini Bio Products), 100 μg/mL penicillin-streptomycin and 1 mM sodium pyruvate (corning cellgro). MIN6 cells were grown in DMEM (corning cellgro) with 10% FBS, 100 μg/mL penicillin-streptomycin and 70 uM beta-mercaptoethanol. For chronic glucose experiments, cells were maintained under low (2.8 mM) or high (20 mM) glucose for 3 days. Exendin-4 (10 nM), Forskolin (10 μM), KCl (40 mM), DMOG (1 mM) and rapamycin (50 nM) were added to cells as indicated. Cellular cAMP levels were measured using an ELISA kit (Cayman Chemical Company) according to manufacturer's instructions. Total RNAs from cells or primary islets were extracted using Trizol and cDNA was generated using the Transcriptor First Strand cDNA Synthesis kit (Roche Applied Science). cDNAs were quantified on a lightcycler 480 instrument (Roche Applied Science). Gene expression data were presented relative to the expression of housekeeping gene L32 (rat samples) and 18S (mouse and human islets). RNA-Seq libraries were prepared using the mRNA isolation protocol and the NEBNext-Ultra kits from New England Biolabs following the manufacturer's protocols. Libraries were quantitated by Qubit (Invitrogen), and run on a MiSeq instrument with paired-end 75 bp reads using v3 chemistry (Illumina) Data were analyzed by tophat2 and cuffdiff against the mouse mm10 genome build. The GEO accession number for RNAseq studies reported in the paper is GSE60158.

C=C[C@@]1(C)CC(=O)[C@]2(O)[C@@]3(C)[C@@H](O)CCC(C)(C)[C@@H]3[C@H](O)[C@H](OC(C)=O)[C@@]2(C)O1 [FSK, Forskolin]
Agt RNAseq value (FSK): 5.2
Ahi1 RNAseq value (FSK): 32.6
Bhlha15 RNAseq value (FSK): 63.9
Btg3 RNAseq value (FSK): 145.9
Bysl RNAseq value (FSK): 56.1
Canx RNAseq value (FSK): 241.6
Ccni RNAseq value (FSK): 242.1
Chd1 RNAseq value (FSK): 20.8
Chrne RNAseq value (FSK): 0.2
Ctf1 RNAseq value (FSK): 0.2
Cxcl2 RNAseq value (FSK): 1.0
Cyth3 RNAseq value (FSK): 30.7
Dkc1 RNAseq value (FSK): 87.8
Epha3 RNAseq value (FSK): 0.1
Epor RNAseq value (FSK): 0.2
Fam49a RNAseq value (FSK): 0.2
Ficd RNAseq value (FSK): 89.9
Fmc1 RNAseq value (FSK): 26.0
Fn1 RNAseq value (FSK): 852.9
Gabre RNAseq value (FSK): 0.1
Gars RNAseq value (FSK): 439.6
Ggt5 RNAseq value (FSK): 0.3
Gnl3 RNAseq value (FSK): 31.0
Gnmt RNAseq value (FSK): 0.4
Gzmm RNAseq value (FSK): 0.4
Hmcn1 RNAseq value (FSK): 0.0
Hmga2 RNAseq value (FSK): 0.5
Hnrnpa1 RNAseq value (FSK): 34.2
Hnrpdl RNAseq value (FSK): 160.1
Hs3st2 RNAseq value (FSK): 0.6
Hspa4 RNAseq value (FSK): 138.6
Hspd1 RNAseq value (FSK): 47.6
Icam2 RNAseq value (FSK): 0.2
Il13ra1 RNAseq value (FSK): 0.3
Il28ra RNAseq value (FSK): 10.0
Kcnb1 RNAseq value (FSK): 48.7
Kcnj13 RNAseq value (FSK): 1.4
Kdm1b RNAseq value (FSK): 9.1
Kif9 RNAseq value (FSK): 0.3
LOC683722 RNAseq value (FSK): 12.3
LOC686295 RNAseq value (FSK): 4.9
LOC689959 RNAseq value (FSK): 17.9
Lrfn5 RNAseq value (FSK): 0.1
Map3k4 RNAseq value (FSK): 25.4
Mef2d RNAseq value (FSK): 146.0
Megf10 RNAseq value (FSK): 0.1
Msn RNAseq value (FSK): 1.2
Myof RNAseq value (FSK): 0.0
Nckap1l RNAseq value (FSK): 0.2
Nkx2-2 RNAseq value (FSK): 192.1
Nolc1 RNAseq value (FSK): 183.8
Notch4 RNAseq value (FSK): 0.9
Ormdl3 RNAseq value (FSK): 286.8
Otop3 RNAseq value (FSK): 0.1
Pabpc6 RNAseq value (FSK): 0.1
Pde3b RNAseq value (FSK): 103.8
Pde4dip RNAseq value (FSK): 61.8
Pdrg1 RNAseq value (FSK): 43.4
Plcb2 RNAseq value (FSK): 0.1
RGD1309079 RNAseq value (FSK): 1.1
RGD1311084 RNAseq value (FSK): 0.2
Rab3gap2 RNAseq value (FSK): 53.1
Rab11fip1 RNAseq value (FSK): 11.0
Rap2a RNAseq value (FSK): 13.5
Rho RNAseq value (FSK): 0.2
Rpl7a RNAseq value (FSK): 0.4
Rpl17 RNAseq value (FSK): 117.5
Rrs1 RNAseq value (FSK): 38.4
Sgce RNAseq value (FSK): 0.2
Smad1 RNAseq value (FSK): 48.4
Smad3 RNAseq value (FSK): 5.7
Snapc1 RNAseq value (FSK): 4.6
Sncaip RNAseq value (FSK): 7.4
Spon2 RNAseq value (FSK): 0.7
Srp54 RNAseq value (FSK): 40.0
Stard8 RNAseq value (FSK): 0.3
Syp RNAseq value (FSK): 744.1
T2 RNAseq value (FSK): 0.2
Taf1a RNAseq value (FSK): 9.0
Tex38 RNAseq value (FSK): 0.5
Tmem114 RNAseq value (FSK): 0.2
Tomm20 RNAseq value (FSK): 90.1
Tpp2 RNAseq value (FSK): 12.0
Twistnb RNAseq value (FSK): 8.1
Usp9x RNAseq value (FSK): 56.0
Vps37b RNAseq value (FSK): 52.0
Zfp830 RNAseq value (FSK): 20.4
Zfp385d RNAseq value (FSK): 0.2
Accsl Fold (FSK/control): 2.0
Acpt Fold (FSK/control): 2.0
Acsl4 Fold (FSK/control): 2.0
Agt Fold (FSK/control): 2.0
Ahi1 Fold (FSK/control): 2.0
Bhlha15 Fold (FSK/control): 2.0
Btg3 Fold (FSK/control): 2.0
Bysl Fold (FSK/control): 2.0
Canx Fold (FSK/control): 2.0
Ccni Fold (FSK/control): 2.0
Chd1 Fold (FSK/control): 2.0
Chrne Fold (FSK/control): 2.0
Ctf1 Fold (FSK/control): 2.0
Cxcl2 Fold (FSK/control): 2.0
Cyth3 Fold (FSK/control): 2.0
Dkc1 Fold (FSK/control): 2.0
Epha3 Fold (FSK/control): 2.0
Epor Fold (FSK/control): 2.0
Fam49a Fold (FSK/control): 2.0
Ficd Fold (FSK/control): 2.0
Fmc1 Fold (FSK/control): 2.0
Fn1 Fold (FSK/control): 2.0
Gabre Fold (FSK/control): 2.0
Gars Fold (FSK/control): 2.0
Ggt5 Fold (FSK/control): 2.0
Gnl3 Fold (FSK/control): 2.0
Gnmt Fold (FSK/control): 2.0
Gzmm Fold (FSK/control): 2.0
Hmcn1 Fold (FSK/control): 2.0
Hmga2 Fold (FSK/control): 2.0
Hnrnpa1 Fold (FSK/control): 2.0
Hnrpdl Fold (FSK/control): 2.0
Hs3st2 Fold (FSK/control): 2.0
Hspa4 Fold (FSK/control): 2.0
Hspd1 Fold (FSK/control): 2.0
Icam2 Fold (FSK/control): 2.0
Il13ra1 Fold (FSK/control): 2.0
Il28ra Fold (FSK/control): 2.0
Kcnb1 Fold (FSK/control): 2.0
Kcnj13 Fold (FSK/control): 2.0
Kdm1b Fold (FSK/control): 2.0
Kif9 Fold (FSK/control): 2.0
LOC683722 Fold (FSK/control): 2.0
LOC686295 Fold (FSK/control): 2.0
LOC689959 Fold (FSK/control): 2.0
Lrfn5 Fold (FSK/control): 2.0
Map3k4 Fold (FSK/control): 2.0
Mef2d Fold (FSK/control): 2.0
Megf10 Fold (FSK/control): 2.0
Msn Fold (FSK/control): 2.0
Myof Fold (FSK/control): 2.0
Nckap1l Fold (FSK/control): 2.0
Nkx2-2 Fold (FSK/control): 2.0
Nolc1 Fold (FSK/control): 2.0
Notch4 Fold (FSK/control): 2.0
Ormdl3 Fold (FSK/control): 2.0
Otop3 Fold (FSK/control): 2.0
Pabpc6 Fold (FSK/control): 2.0
Pde3b Fold (FSK/control): 2.0
Pde4dip Fold (FSK/control): 2.0
Pdrg1 Fold (FSK/control): 2.0
Plcb2 Fold (FSK/control): 2.0
RGD1309079 Fold (FSK/control): 2.0
RGD1311084 Fold (FSK/control): 2.0
Rab3gap2 Fold (FSK/control): 2.0
Rab11fip1 Fold (FSK/control): 2.0
Rap2a Fold (FSK/control): 2.0
Rho Fold (FSK/control): 2.0
Rpl7a Fold (FSK/control): 2.0
Rpl17 Fold (FSK/control): 2.0
Rrs1 Fold (FSK/control): 2.0
Sgce Fold (FSK/control): 2.0
Smad1 Fold (FSK/control): 2.0
Smad3 Fold (FSK/control): 2.0
Snapc1 Fold (FSK/control): 2.0
Sncaip Fold (FSK/control): 2.0
Spon2 Fold (FSK/control): 2.0
Srp54 Fold (FSK/control): 2.0
Stard8 Fold (FSK/control): 2.0
Syp Fold (FSK/control): 2.0
T2 Fold (FSK/control): 2.0
Taf1a Fold (FSK/control): 2.0
Tex38 Fold (FSK/control): 2.0
Tmem114 Fold (FSK/control): 2.0
Tomm20 Fold (FSK/control): 2.0
Tpp2 Fold (FSK/control): 2.0
Twistnb Fold (FSK/control): 2.0
Usp9x Fold (FSK/control): 2.0
Vps37b Fold (FSK/control): 2.0
Zfp830 Fold (FSK/control): 2.0
Zfp385d Fold (FSK/control): 2.0
